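Dose response: 5 concentrations. Exposure: 48 h. Format: 96-well plates. Endpoint: linear interpolation; highest concentration if not reached. Here, GI50 denotes the concentration required for 50% inhibition of growth.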 Active and inactive are the calls of the source. Cut-off read from the data, not from the text of the source: active = GI50 up to about 1.1 µM and inactive = higher.
Assays:
Test in all cases: DTP human tumour cell line panel, 48 h
HCC 2998 = tested on: HCC 2998
MDA-N = tested on: MDA-N
K562 = tested on: K562
SF-295 = tested on: SF-295
SN12C = tested on: SN12C
SNB-75 = tested on: SNB-75
A549 = tested on: A549
MCF7 = tested on: MCF7
SR = tested on: SR
U-251 = tested on: U-251
UACC-257 = tested on: UACC-257
MOLT-4 = tested on: MOLT-4
HOP-92 = tested on: HOP-92
M14 = tested on: M14
SK-MEL-2 = tested on: SK-MEL-2
NCI-H226 = tested on: NCI-H226
HCT-15 = tested on: HCT-15
HL-60 = tested on: HL-60
SK-OV-3 = tested on: SK-OV-3
HT-29 = tested on: HT-29

SMILES	GI50 (HCC 2998)	GI50 (MDA-N)	GI50 (K562)	GI50 (SF-295)	GI50 (SN12C)	GI50 (SNB-75)	GI50 (A549)	GI50 (MCF7)	GI50 (SR)	GI50 (U-251)	GI50 (UACC-257)	GI50 (MOLT-4)	GI50 (HOP-92)	GI50 (M14)	GI50 (SK-MEL-2)	GI50 (NCI-H226)	GI50 (HCT-15) [µM]	GI50 (HL-60)	GI50 (SK-OV-3)	GI50 (HT-29)
C[C@]12CC[C@H]3[C@@H](CCC4=CC(=O)C=C[C@@]43O)[C@@H]1CCC2=O	> 100 µM (inactive)	> 100 µM (inactive)	83.9 µM (inactive)	> 100 µM (inactive)	> 100 µM (inactive)	> 100 µM (inactive)	62.1 µM (inactive)	> 100 µM (inactive)	74.3 µM (inactive)	> 100 µM (inactive)	> 100 µM (inactive)	27.2 µM (inactive)	27.9 µM (inactive)	> 100 µM (inactive)	77.4 µM (inactive)	69.8 µM (inactive)	56			
CCN(CC)C(=O)CCCCCCCCC1CO1 (configuration not stated)		> 100 µM (inactive)	> 100 µM (inactive)	> 100 µM (inactive)	> 100 µM (inactive)	> 100 µM (inactive)	> 100 µM (inactive)	> 100 µM (inactive)	> 100 µM (inactive)	> 100 µM (inactive)	> 100 µM (inactive)	> 100 µM (inactive)	> 100 µM (inactive)	> 100 µM (inactive)	> 100 µM (inactive)	> 100 µM (inactive)	> 100	21.1 µM (inactive)	> 100 µM (inactive)	> 100 µM (inactive)
COc1cc2c(cc1OC)[C@@H]1[C@H](C#N)C(=O)C(C)(C)N1CC2	> 100 µM (inactive)	> 100 µM (inactive)	> 100 µM (inactive)	> 100 µM (inactive)	> 100 µM (inactive)		> 100 µM (inactive)	> 100 µM (inactive)	> 100 µM (inactive)	> 100 µM (inactive)	> 100 µM (inactive)	> 100 µM (inactive)	> 100 µM (inactive)	> 100 µM (inactive)		> 100 µM (inactive)	> 100	23.6 µM (inactive)	> 100 µM (inactive)	> 100 µM (inactive)
COC(=O)CSc1nc2[nH]c(SC)c(C(N)=O)c2c(=O)n1-c1ccccc1	> 10 µM (inactive)	> 10 µM (inactive)	> 10 µM (inactive)	> 10 µM (inactive)	> 10 µM (inactive)	> 10 µM (inactive)	> 10 µM (inactive)	> 10 µM (inactive)	> 10 µM (inactive)		> 10 µM (inactive)	> 10 µM (inactive)	> 10 µM (inactive)	> 10 µM (inactive)			> 10	> 10 µM (inactive)	> 10 µM (inactive)	> 10 µM (inactive)
O=C(O)CCCCn1ccc(=O)[nH]c1=O	> 100 µM (inactive)	> 100 µM (inactive)	> 100 µM (inactive)	> 100 µM (inactive)	> 100 µM (inactive)	> 100 µM (inactive)	> 100 µM (inactive)	> 100 µM (inactive)	> 100 µM (inactive)	> 100 µM (inactive)	> 100 µM (inactive)	> 100 µM (inactive)		> 100 µM (inactive)	> 100 µM (inactive)	> 100 µM (inactive)	> 100	> 100 µM (inactive)	> 100 µM (inactive)	> 100 µM (inactive)
C/C(=N\Nc1nc2ccccc2s1)c1cccc[n+]1[O-]	0.0252 µM (active)	76.2 µM (inactive)	31.4 µM (inactive)	0.594 µM (active)	48.9 µM (inactive)		42.8 µM (inactive)	23.2 µM (inactive)	23.9 µM (inactive)	47 µM (inactive)	40.1 µM (inactive)	1.81 µM (inactive)	13.5 µM (inactive)	32.2 µM (inactive)	> 100 µM (inactive)	55.2 µM (inactive)	34.2		37.4 µM (inactive)	41.5 µM (inactive)
CCOC(=O)c1cc2c(OC)cc(OC)cc2oc1=O	> 100 µM (inactive)	> 100 µM (inactive)	> 100 µM (inactive)	50 µM (inactive)	> 100 µM (inactive)	38.5 µM (inactive)	> 100 µM (inactive)	> 100 µM (inactive)	> 100 µM (inactive)	37.7 µM (inactive)	> 100 µM (inactive)	> 100 µM (inactive)	46.8 µM (inactive)	> 100 µM (inactive)	> 100 µM (inactive)	> 100 µM (inactive)	> 100	> 100 µM (inactive)		> 100 µM (inactive)
O=C1NC2=NN=C(c3ccc(Br)cc3)CN2NC12c1ccccc1-c1ccccc12	> 100 µM (inactive)	> 100 µM (inactive)	> 100 µM (inactive)	> 100 µM (inactive)	> 100 µM (inactive)	> 100 µM (inactive)	> 100 µM (inactive)	73.3 µM (inactive)	69.2 µM (inactive)	> 100 µM (inactive)	> 100 µM (inactive)		> 100 µM (inactive)	> 100 µM (inactive)	> 100 µM (inactive)	> 100 µM (inactive)	> 100		> 100 µM (inactive)	> 100 µM (inactive)
Cc1ccc(S(=O)(=O)OC2=C/C(=N\c3onc(C)c3C)c3ccccc3C2=O)cc1		25.2 µM (inactive)	4.41 µM (inactive)	32.4 µM (inactive)	18.7 µM (inactive)	45.7 µM (inactive)	51.1 µM (inactive)	17.3 µM (inactive)	3.01 µM (inactive)	4 µM (inactive)	15.2 µM (inactive)	4.8 µM (inactive)	18.8 µM (inactive)	18.8 µM (inactive)	12.9 µM (inactive)	35.4 µM (inactive)	29	6.43 µM (inactive)	28.7 µM (inactive)	34.2 µM (inactive)
Cc1cc(S(=O)(=O)Nc2nc3ccccc3[nH]2)c(S)cc1Cl	98.9 µM (inactive)	> 100 µM (inactive)	48 µM (inactive)	53.1 µM (inactive)	> 100 µM (inactive)	> 100 µM (inactive)	45.2 µM (inactive)	71 µM (inactive)	38.2 µM (inactive)	24.1 µM (inactive)	> 100 µM (inactive)	30.4 µM (inactive)	62.5 µM (inactive)	> 100 µM (inactive)	30.9 µM (inactive)		> 100	35.5 µM (inactive)	> 100 µM (inactive)	> 100 µM (inactive)
O=C(O)C1C2C=CC(O2)C1C(=O)Nc1ncccn1 (configuration not stated)		> 100 µM (inactive)	97.9 µM (inactive)	> 100 µM (inactive)	> 100 µM (inactive)	> 100 µM (inactive)	> 100 µM (inactive)	> 100 µM (inactive)	> 100 µM (inactive)	> 100 µM (inactive)	> 100 µM (inactive)	> 100 µM (inactive)	> 100 µM (inactive)	> 100 µM (inactive)	> 100 µM (inactive)	> 100 µM (inactive)	> 100	> 100 µM (inactive)	> 100 µM (inactive)	> 100 µM (inactive)
COC(=O)C1CCC(=S)N1C(=O)OCc1ccccc1 (configuration not stated)	62.1 µM (inactive)	> 100 µM (inactive)	> 100 µM (inactive)	78 µM (inactive)		> 100 µM (inactive)	71 µM (inactive)	88.3 µM (inactive)	> 100 µM (inactive)	81.8 µM (inactive)	66.4 µM (inactive)	> 100 µM (inactive)	> 100 µM (inactive)	> 100 µM (inactive)	> 100 µM (inactive)		92.7		> 100 µM (inactive)	> 100 µM (inactive)
CCC(=O)Nc1ccc(/N=C/c2cccc(Oc3ccccc3)c2)cc1		40.1 µM (inactive)	24.4 µM (inactive)	> 100 µM (inactive)	> 100 µM (inactive)	> 100 µM (inactive)	> 100 µM (inactive)	44.1 µM (inactive)	16.2 µM (inactive)			23.9 µM (inactive)	85.3 µM (inactive)	46.6 µM (inactive)	> 100 µM (inactive)	18.2 µM (inactive)	> 100	26.7 µM (inactive)	> 100 µM (inactive)	49.2 µM (inactive)
COc1ccc(/C=C2\N=C(c3ccccc3)N(C3Nc4cc5c(cc4S3)NC(N3C(=O)/C(=C/c4ccc(OC)cc4)N=C3c3ccccc3)S5)C2=O)cc1 (configuration not stated)	30.1 µM (inactive)	37.9 µM (inactive)	58.2 µM (inactive)	> 100 µM (inactive)		22.5 µM (inactive)	36.8 µM (inactive)	43.6 µM (inactive)	9.68 µM (inactive)	22.9 µM (inactive)	> 100 µM (inactive)	23.6 µM (inactive)	> 100 µM (inactive)	> 100 µM (inactive)	31.6 µM (inactive)	60.1 µM (inactive)	38.5	33.2 µM (inactive)		46.2 µM (inactive)
CCOC(=O)COc1ccc(/C=C/C(=O)c2ccc(OC)cc2)cc1	23.7 µM (inactive)	26.7 µM (inactive)	40.6 µM (inactive)	29 µM (inactive)	19 µM (inactive)	65.3 µM (inactive)	58.1 µM (inactive)	30.7 µM (inactive)	23.2 µM (inactive)	14.3 µM (inactive)	23.1 µM (inactive)	42.9 µM (inactive)	16.6 µM (inactive)	34.6 µM (inactive)	27.7 µM (inactive)		24.4	27 µM (inactive)		21.5 µM (inactive)
